Measured values as given in patent publication US5302610A, “Renal-selective biphenylmethyl imidazole angiotensin II antagonists for treatment of hypertension” (G. D. Searle & Co., priority 1991, dated 1994).

Experiments:
[1] = in vivo; cited from earlier work
angiotensin II = settings: binding experiments, functional assays and in vivo tests; cited from earlier work
guanylate cyclase = settings: cited from earlier work
[2] = tested on: spontaneously hypertensive rats (SHR); test: Assay D: Mean Arterial Pressure, chronic infusion of conjugate; assay type: in vivo
Method: (§1) This in vivo experiment was conducted to characterize the effects of the Example 81 conjugate on spontaneously hypertensive rats (SHR) by acute administration i.v. and by chronic administration i.v. The Example 81 compound or saline vehicle was infused continuously for four days in SHR. Mean arterial pressure was measured (Gould Chart Recorder, model 3800; Statham P23Db pressure transducer) via an indwelling femoral artery catheter between 10:00 A. M. and 2:00 P. M. each day. The Example 81 conjugate (10 mg/hr) or saline was infused via a jugular vein catheter with a Harvard infusion pump. […] A test was conducted to determine whether the Example 81 conjugate would antagonize non-renal, vascular angiotensin II receptors. In this test AII was administered by bolus injection (100 ng/kg) to the SHR rats (described above) on the control day and on days 1, 2 and 3 during conjugate infusion.

[3] = tested on: non-renal, vascular angiotensin II receptors; test: Assay D: AII Pressor Response during chronic infusion of conjugate; assay type: in vivo, spontaneously hypertensive rats (SHR); settings: for AII Pressor Response (MAP): AII 100 ng/kg bolus
Method: as §1

[4] = tested on: response to angiotensin II (urinary sodium excretion); test: Assay E: Urinary Sodium Excretion, acute administration with AII infusion; assay type: in vivo, male Sprague-Dawley rats, conscious; settings: for Urinary Sodium Excretion: means±SE
Method: (§2) antagonist compound (Ex. #5) and a glutamyl conjugate (Ex. #81) of the Ex. #5 AII antagonist compound to determine the renal selectivity of the conjugate. Male Sprague-Dawley rats (300-350 g body weight) had catheters implanted into the femoral artery and vein under chloral hydrate anesthesia (400 mg/kg, i.p.). After 2 to 4 days of recovery, on the experimental day, a urinary bladder catheter was implanted under methohexital anesthesia (50 mg/kg, i.p.). Rats were placed in a restraint device to allow for urine collection and mean arterial pressure measurements. After 1-2 hours of recovery, in conscious rats, an isotonic saline infusion (50 μl/min) was started and continued for the duration of the experiment. After one hour equilibration to the saline infusion, a 20 minute control urine and mean arterial pressure collection were obtained. Then angiotensin II was infused at 20 ng/min for 25 minutes. After 5 minutes of angiotensin II infusion, a 20 minute experimental collection was made. Finally, 5 minutes after the end of angiotensin II infusion, a 20 minute recovery collection was obtained. In separate groups of rats, vehicle (0.3 ml isotonic saline, i.v. bolus), Example #5 angiotensin II antagonist compound (100 mg/kg, i.v. bolus), or Example #81 conjugate (100 mg/kg, i.v. bolus) was administered 1-2 minutes prior to onset of angiotensin II infusion. […] Results are shown in Tables XIII and XIV and also in FIGS. 3 and 4. Data are presented as means±SE. Repeated measures analysis of variance was used for main effects and interactions and Tukey's HSD test was used for pairwise comparisons among means. Statistical significance was defined as p<0.05.

[5] = tested on: response to angiotensin II (mean arterial pressure); test: Assay E: Mean Arterial Pressure, acute administration with AII infusion; assay type: in vivo, male Sprague-Dawley rats, conscious; settings: for Mean Arterial Pressure: n = 6, means±SE
Method: as §2

[6] = tested on: γ-glutamyl transpeptidase; settings: dogs; cited from earlier work
angiotensin II receptors = settings: cited from earlier work
kidney = settings: normal subjects; cited from earlier work
dopa-decarboxylase = settings: in vivo; cited from earlier work
[7] = Control day (baseline before infusion)
[8] = 100 mg/kg i.v. bolus, Recovery after AII infusion
[9] = 100 mg/kg i.v. bolus, during AII infusion 20 ng/min, * in table
[10] = 100 mg/kg, i.v. bolus, AII 20 ng/min

Q: With `CCCCc1ccc(NNC(=O)CCC(NC(C)=O)C(=O)O)nc1` (stereo not drawn) as the compound, how does the renal vasodilation [1] read?
A: provided selective renal vasodilation

Q: Which “angiotensin II antagonist activity” value (angiotensin II) does the source give for `CCCCc1nc(Cl)c(CC(=O)O)n1Cc1ccccc1[N+](=O)[O-]` [2-butyl-4-choloro-1-(2-nitrobenzyl)imidazole-5-acetic acid] here?
A: specific competitive angiotensin II antagonist activity

Q: Which guanylate cyclase activity (guanylate cyclase) does the source give for `CCCCc1ccc(NN)nc1` [2-hydrazino-5-n-butylpyridine] here?
A: stimulates guanylate cyclase activity

Q: Which “angiotensin II antagonist activity” value (angiotensin II) does the source give for `CCCCc1nc(Cl)c(CC(=O)O)n1Cc1ccccc1Cl` [2-n-butyl-4-chloro-1-(2-chlorobenzyl)imidazole-5-acetic acid] here?
A: specific competitive angiotensin II antagonist activity

Q: Which “mean arterial pressure as compared to saline vehicle control” value ([2]; 10 mg/hr i.v. infusion, SHR) does the source give for `CCCCc1nc(Cl)c(CO)n1Cc1ccc(-c2ccccc2C(=O)NNC(=O)CC[C@H](NC(C)=O)C(=O)O)cc1` [Example 81, N-acetyl-L-glutamic acid, 5-[[4'-[2-butyl-4-chloro-5-(hydroxymethyl)-1H-imidazol-1-ylmethyl][1,1'-biphenyl]-2-yl]carbonyl]hydrazide] here?
A: lowered mean arterial pressure as compared to the saline vehicle control

Q: And the “Mean Arterial Pressure (MAP)” value ([2]; 10 mg/hr i.v. infusion, day 1)?
A: 148 mm Hg

Q: What about the “Mean Arterial Pressure (MAP)” value ([2]; 10 mg/hr i.v. infusion, day 2) of the same compound?
A: 135 mm Hg

Q: What about the “Mean Arterial Pressure (MAP)” value ([2]; 10 mg/hr i.v. infusion, day 3) of the same compound?
A: 140 mm Hg

Q: And the “Mean Arterial Pressure (MAP)” value [2, 7]?
A: 163 mm Hg

Q: And the “systemic angiotensin II receptor antagonism” value ([3]; 10 mg/hr i.v. infusion, days 1, 2 and 3)?
A: No evidence for systemic angiotensin II receptor antagonism was observed

Q: What about the “AII Pressor Response (MAP)” value ([3]; 10 mg/hr i.v. infusion, day 1) of the same compound?
A: 45 mm Hg

Q: What about the “AII Pressor Response (MAP)” value ([3]; 10 mg/hr i.v. infusion, day 2) of the same compound?
A: 65 mm Hg

Q: What about the “AII Pressor Response (MAP)” value ([3]; 10 mg/hr i.v. infusion, day 3) of the same compound?
A: 60 mm Hg

Q: And the “AII Pressor Response (MAP)” value [3, 7]?
A: 44 mm Hg

Q: And the “Urinary Sodium Excretion” value [4, 8]?
A: 1.8 ± 0.4 μEq/min/100 g BW

Q: And the “Urinary Sodium Excretion” value [4, 9]?
A: 4.1 ± 1.3 μEq/min/100 g BW

Q: What about the “antinatriuretic (urinary sodium excretion) response to angiotensin II” value [4, 10] of the same compound?
A: prevented the antinatriuretic response to angiotensin II

Q: And the “urinary sodium excretion during angiotensin II infusion” value [4, 10]?
A: actually increased urinary sodium excretion

Q: And the “Urinary Sodium Excretion” value ([4]; Control period (before dosing))?
A: 1.3 ± 0.3 μEq/min/100 g BW

Q: What about the “Mean Arterial Pressure” value [5, 8] of the same compound?
A: 121 ± 4 mm Hg

Q: And the “Mean Arterial Pressure” value [5, 9]?
A: 151 ± 4 mm Hg

Q: And the “mean arterial pressure response to angiotensin II” value [5, 10]?
A: had no effect on the mean arterial pressure response

Q: And the “Mean Arterial Pressure” value ([5]; Control period (before dosing))?
A: 117 ± 3 mm Hg

Q: With `N[C@@H](CCC(=O)NCCc1ccc(O)c(O)c1)C(=O)O` [L-γ-glutamyl amide of dopamine] as the compound, how does the “generation of dopamine in vivo” value [6] read?
A: generate dopamine in vivo by specific enzymatic cleavage by γ-glutamyl transpeptidase

Q: Which residual agonist activity (angiotensin II receptors) does the source give for `CNCC(=O)N[C@@H](CCCN=C(N)N)C(=O)N[C@H](C(=O)N[C@@H](Cc1ccc(O)cc1)C(=O)N[C@H](C(=O)N[C@@H](Cc1cnc[nH]1)C(=O)N1CCC[C@H]1C(=O)N[C@@H](C)C(=O)O)C(C)C)C(C)C` [Saralasin] here?
A: have a significant residual agonist activity

Q: Which results are given for `N[C@@H](CCC(=O)N[C@@H](Cc1ccc(O)c(O)c1)C(=O)O)C(=O)O` [gludopa, γ-L-glutamyl-L-dopa]?
A: kidney specificity (kidney): relatively specific for the kidney; renal blood flow, glomerular filtration and urinary sodium excretion (kidney): increase renal blood flow, glomerular filtration and urinary sodium excretion in normal subjects; blockade of activity by the dopa-decarboxylase inhibitor carbidopa (dopa-decarboxylase): activity can be blocked by the dopa-decarboxylase inhibitor carbidopa

Q: What does the source list for “angiotensin II: an octapeptide which is the primary active species of this system (DRVYIHPF; Angiotensin-2; UniProt P01019 25-32, looked up) [reference compound]”?
A: effect of angiotensin II infusion on urinary sodium excretion ([4]; AII 20 ng/min for 25 minutes): decreased urinary sodium excretion; effect of angiotensin II infusion on mean arterial pressure ([5]; AII 20 ng/min for 25 minutes): increased mean arterial pressure
